Experimental data: patent publication US20250241923A1, “A DUAL SELECTIVE PI3K DELTA AND GAMMA INHIBITORS AND/OR A SALT-INDUCIBLE KINASE 3 INHIBITOR FOR TREATING SOLID TUMORS” (Incozen Therapeutics Pvt. Ltd, priority 2022, published 2025)

Columns and labels:
[1] = system: MDA-MB-231 breast cancer cell lines; assay: cells; conditions: Homo sapiens, MDA-MB-231, 72 h, read-out: growth inhibition
[2] = system: SK-OV-3 ovarian cancer cell line; assay: Anti-proliferative effect of taxol and Compound (M) (Example 10), SK-OV-3; assay type: cell-based; conditions: Homo sapiens, taxol alone (6 nM, FIG. 7), read-out: growth inhibition
[3] = system: MDA-MB-231 breast cancer cell line; assay: Anti-proliferative effect of taxol (Example 10), MDA-MB-231; assay type: cell-based; conditions: taxol alone (Example 10)
[4] = system: MCF-7 breast cancer cell lines; assay: cells; conditions: Homo sapiens, MCF7, 72 h, read-out: growth inhibition
[5] = system: MCF-7 breast cancer cell line; assay: Anti-proliferative effect of taxol (Example 10), MCF-7; assay type: cell-based; conditions: taxol alone (Example 10)
[6] = system: ZR.75.1 breast cancer cell line; assay: Anti-proliferative effect of taxol (Example 10), ZR.75.1; assay type: cell-based; conditions: taxol alone (Example 10)
MCF-7 cell lines = assay: Cell proliferation (MTT), Compound M and olaparib, MCF-7; assay type: cell-based; conditions: Homo sapiens, MCF7, olaparib alone (5 μM, FIG. 5), 72 h, read-out: growth inhibition
Experimental: • MCF-7 cells were plated in MEM+10% FBS complete media at pre-determined density in a 96-well plate. • Cells were exposed to either DMSO (control) alone, Compound M alone, olaparib alone, or a combination of Compound M and olaparib. • Cells were incubated for 72 h in presence of the inhibitors. • MTT reaction was performed to determine the cell viability at the end of the treatment period and absorbance was measured at wavelength 560 and 640 nM. • % cell growth inhibitions were calculated, and Tukey's analysis was performed using GraphPad Prism to compare the treated groups.

[7] = system: OVCAR-3 ovarian cancer cell lines; assay: Anti-proliferative activity with PARP inhibitors, OVCAR-3; assay type: cell-based; conditions: Homo sapiens, olaparib alone (3 μM, FIG. 6C), read-out: growth inhibition

SMILES | inhibition at 0.003 µM [1] | inhibition at 0.006 µM [2] | growth inhibition [3] | inhibition at 0.003 µM [4] | growth inhibition [5] | growth inhibition [6] | inhibition at 5 µM (MCF-7 cell lines) | inhibition at 3 µM [7]
CC(=O)O[C@H]1C(=O)[C@@]2(C)[C@H]([C@H](OC(=O)c3ccccc3)[C@]3(O)C[C@H](OC(=O)[C@H](O)[C@@H](NC(=O)c4ccccc4)c4ccccc4)C(C)=C1C3(C)C)[C@]1(OC(C)=O)CO[C@@H]1C[C@@H]2O [Taxol] | 34.5% | 59.2% | 44.4% | 28.8% | 17.3% | 25.8% |  | 
O=C(c1cc(Cc2n[nH]c(=O)c3ccccc23)ccc1F)N1CCN(C(=O)C2CC2)CC1 [Olaparib] |  |  |  |  |  |  | 43.2% | 29.3%
